# Tested on: Mycobacterium tuberculosis
# Experiment: Antimycobacterial activity against Mycobacterium tuberculosis H37Rv after 2 weeks
# Format: functional
# Settings: 336 h
row,Structure (SMILES),MIC [mg/L]
1,COc1cc(/C=C/C(=O)NCCc2ccc(O)cc2)ccc1O [N-TRANS-FERULOYL TYRAMINE],60
2,COc1cc(OC)c(C[C@@H](O)Cc2ccc(OC)c(OC)c2)c(OC)c1 [HYPOPHAOL],100
3,CCCCCCCCCCCCC/C=C1/C(=O)O[C@](C)(OC)[C@@H]1O [LITSEAKOLIDE L],25
4,COc1cc(/C=C/C(=O)NCCc2ccc(O)c(OC)c2)ccc1O,1.6
5,COc1cc(C2c3c(cc(OC)c(O)c3OC)C=C(C(=O)NCCc3ccc(O)cc3)C2C(=O)NCCc2ccc(O)cc2)cc(OC)c1O (configuration not stated),> 100
6,COc1cc(/C=C/C(=O)NCCc2ccc(O)cc2)cc(OC)c1O [TRANS-N-SINAPOYLTYRAMINE],> 100
7,CC[C@@H](CO)NCCN[C@@H](CC)CO [ETHAMBUTOL],6.25

# From ChEMBL document CHEMBL1158570, “Secondary metabolites from the roots of Litsea hypophaea and their antitubercular activity” (2010)
